What was measured:
mouse splenocytes = assay: Splenic cell proliferation assay (anti-IgM stimulated B cell proliferation, Cell Titer-Glo); format: cell-based; conditions: Splenocyte; CD1 mouse splenocytes, 1 h pre-treatment, 2.5 ug/ml anti-IgM F(ab')2 for 72 h; read-out: EC50 (nM), Inhibition of splenic cell proliferation
Protocol: Splenic Cell Proliferation Assay
Splenocytes were obtained from 6 week old male CD1 mice (Charles River Laboratories Inc.). Mouse spleens were manually disrupted in PBS and filtered using a 70 μm cell strainer followed by ammonium chloride red blood cell lysis. Cells were washed, resuspended in Splenocyte Medium (HyClone RPMI supplemented with 10% heat-inactivated FBS, 0.5× non-essential amino acids, 10 mM HEPES, 50 uM beta mercaptoethanol) and incubated at 37° C., 5% CO2 for 2 h to remove adherent cells. Suspension cells were seeded in 96 well plates at 50,000 cells per well and incubated at 37° C., 5% CO2 for 1 h. Splenocytes were pre-treated in triplicate with 10,000 nM curves of Formula 1 compounds for 1 h, followed by stimulation of B cell proliferation with 2.5 ug/ml anti-IgM F(ab′)2 (Jackson ImmunoResearch) for 72 h. Cell proliferation was measured by Cell Titer-Glo Luminescent Assay (Promega). EC50 values (50% proliferation in the presence of compound as compared to vehicle treated controls) were calculated from dose response compound curves using GraphPad Prism Software.
EC50 values are reported in Table 4: • a—Less than 100 nM; b—less than 1000 nM; c—more than 1000 nM

[1] = biological target: T1, histidine tagged recombinant human full-length Bruton Agammaglobulinemia Tyrosine Kinase (Btk) (Homo sapiens, UniProt Q06187); assay: Btk kinase inhibition assay (fluorescence polarization, KinEASE FP Fluorescein Green); format: biochemical; conditions: 10 μM ATP, 250 μM substrate, 60 minutes, room temperature; Ki from IC50 by Cheng-Prusoff; read-out: ki50 (nM), Inhibition of Btk
T1 construct: recombinant human full-length Bruton Agammaglobulinemia Tyrosine Kinase (Btk); histidine tag
T1 sequence (Q06187 whole entry): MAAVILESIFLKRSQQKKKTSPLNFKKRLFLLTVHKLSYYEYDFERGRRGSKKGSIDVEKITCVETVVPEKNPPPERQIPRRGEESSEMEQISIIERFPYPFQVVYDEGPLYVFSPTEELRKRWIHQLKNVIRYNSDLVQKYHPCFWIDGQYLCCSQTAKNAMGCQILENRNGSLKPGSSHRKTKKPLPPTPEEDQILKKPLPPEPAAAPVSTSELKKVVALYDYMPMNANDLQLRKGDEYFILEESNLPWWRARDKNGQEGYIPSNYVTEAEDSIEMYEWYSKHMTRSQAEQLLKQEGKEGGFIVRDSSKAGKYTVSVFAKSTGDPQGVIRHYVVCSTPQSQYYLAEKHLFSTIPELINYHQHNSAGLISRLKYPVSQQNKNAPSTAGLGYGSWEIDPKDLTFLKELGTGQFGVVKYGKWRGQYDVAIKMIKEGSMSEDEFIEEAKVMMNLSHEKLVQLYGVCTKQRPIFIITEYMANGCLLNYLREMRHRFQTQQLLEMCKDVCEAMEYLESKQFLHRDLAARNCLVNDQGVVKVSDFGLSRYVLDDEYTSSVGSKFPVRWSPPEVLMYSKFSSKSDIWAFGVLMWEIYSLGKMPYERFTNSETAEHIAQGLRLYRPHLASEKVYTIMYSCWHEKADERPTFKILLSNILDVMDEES
Protocol: Kinase Binding Btk and Lck Kinase Inhibition Assay
Fluorescence polarization-based kinase assays were performed in 384 well-plate format using histidine tagged recombinant human full-length Bruton Agammaglobulinemia Tyrosine Kinase (Btk) or histidine tagged recombinant Human Lymphocyte-Specific Protein Tyrosine Kinase (Lck) and a modified protocol of the KinEASE™ FP Fluorescein Green Assay supplied from Millipore. Kinase reaction were performed at room temperature for 60 minutes in presence of 250 μM substrate, 10 μM ATP and variable test article concentrations. The reaction was stopped with EDTA/kinease detection reagents and the polarization measured on a Tecan 500 instrument. From the dose-response curve obtained, the IC50 was calculated using Graph Pad Prisms® using a non-linear fit curve. The Km for ATP on each enzyme was experimentally determined and the Ki values calculated using the Cheng-Prusoff equation (see: Cheng Y, Prusoff W H. (1973) Relationship between the inhibition constant (K1) and the concentration of inhibitor which causes 50 percent inhibition (I50) of an enzymatic reaction”. Biochem Pharmacol 22 (23): 3099-108).
ki values are reported in Tables 2 and 3: • a—Less than 100 nM; b—less than 1000 nM; c—more than 1000 nM

Ki [1] [nM] | SMILES | EC50 (mouse splenocytes) [nM]
< 100 | CC1OCc2c1c1ncnc(N)c1n2-c1ccc(Oc2cccc(OCc3ccccc3C#N)c2)cc1 (stereo not shown) [Compound 96] | < 100
< 100 | COc1cccc(COc2cccc(Oc3ccc(-n4c5c(c6ncnc(N)c64)C(C)OC5)cc3)c2)c1 (stereo not shown) [Compound 103] | 100 to 1000
< 100 | COc1ccc(COc2cccc(Oc3ccc(-n4c5c(c6ncnc(N)c64)C(C)OC5)cc3)c2)cc1 (stereo not shown) [Compound 104] | 100 to 1000
< 100 | CC1OCc2c1c1ncnc(N)c1n2-c1ccc(Oc2cccc(OCc3cccc(C(F)(F)F)c3)c2)cc1 (stereo not shown) [Compound 105] | 100 to 1000
< 100 | CC(=O)Nc1cccc(COc2cccc(Oc3ccc(-n4c5c(c6ncnc(N)c64)C(C)OC5)cc3)c2)c1 (stereo not shown) [Compound 106] | 100 to 1000
< 100 | CC1OCc2c1c1ncnc(N)c1n2-c1ccc(Oc2cccc(OCc3ccccc3Cl)c2)cc1 (stereo not shown) [Compound 107] | < 100
< 100 | COc1ccccc1COc1cccc(Oc2ccc(-n3c4c(c5ncnc(N)c53)C(C)OC4)cc2)c1 (stereo not shown) [Compound 108] | 100 to 1000
< 1000 | COc1ccc(C(=O)Nc2cccc(Oc3ccc(-n4c5c(c6ncnc(N)c64)C(C)OC5)cc3)c2)cc1 (stereo not shown) [Compound 110] | > 1000
< 100 | CC(C)CC(=O)Nc1cccc(Oc2ccc(-n3c4c(c5ncnc(N)c53)C(C)OC4)cc2)c1 (stereo not shown) [Compound 114] | 100 to 1000
< 100 | CC1OCc2c1c1ncnc(N)c1n2-c1ccc(Oc2cccc(CCOc3ccccc3)c2)cc1 (stereo not shown) [Compound 115] | 100 to 1000
< 100 | Cc1nc(-c2cccc(Oc3ccc(-n4c5c(c6ncnc(N)c64)CCC5)cc3)c2)cs1 [Compound 117] | 100 to 1000
< 100 | COc1cccc(C(=O)Nc2cccc(Oc3ccc(-n4c5c(c6ncnc(N)c64)C(C)OC5)cc3)c2)c1 (stereo not shown) [Compound 118] | 100 to 1000
< 100 | CC1OCc2c1c1ncnc(N)c1n2-c1ccc(Oc2cccc(NC(=O)c3cccc(Cl)c3)c2)cc1 (stereo not shown) [Compound 119] | 100 to 1000
< 100 | CC1OCc2c1c1ncnc(N)c1n2-c1ccc(Oc2cccc(NC(=O)c3ccc(Cl)cc3)c2)cc1 (stereo not shown) [Compound 120] | 100 to 1000
< 100 | N#Cc1ccccc1COc1cccc(Oc2ccc(-n3c4c(c5ncnc(N)c53)CCC4)cc2)c1 [Compound 122] | 100 to 1000
< 100 | COc1cccc(COc2cccc(Oc3ccc(-n4c5c(c6ncnc(N)c64)CCC5)cc3)c2)c1 [Compound 123] | 100 to 1000
< 100 | CC1OCc2c1c1ncnc(N)c1n2-c1ccc(Oc2cccc(OCCC3CCCCC3)c2)cc1 (stereo not shown) [Compound 124] | 100 to 1000
< 100 | COc1ccc(COc2cccc(Oc3ccc(-n4c5c(c6ncnc(N)c64)CCC5)cc3)c2)cc1 [Compound 129] | 100 to 1000
< 100 | CC1OCc2c1c1ncnc(N)c1n2-c1ccc(Oc2cccc(OCc3cccc(NC(=O)C4CC4)c3)c2)cc1 (stereo not shown) [Compound 133] | < 100
< 100 | CC(C)COc1cccc(Oc2ccc(-n3c4c(c5ncnc(N)c53)C(C)OC4)cc2)c1 (stereo not shown) [Compound 135] | 100 to 1000
< 100 | CCCCOc1cccc(Oc2ccc(-n3c4c(c5ncnc(N)c53)C(C)OC4)cc2)c1 (stereo not shown) [Compound 136] | 100 to 1000
< 100 | COc1cccc(OCc2cccc(Oc3ccc(-n4c5c(c6ncnc(N)c64)C(C)OC5)cc3)c2)c1 (stereo not shown) [Compound 137] | 100 to 1000
< 1000 | CC(=O)Nc1ccccc1OCc1cccc(Oc2ccc(-n3c4c(c5ncnc(N)c53)C(C)OC4)cc2)c1 (stereo not shown) [Compound 141] | 100 to 1000

More lines, now with the values behind:

SMILES | Ki [1] [nM] | EC50 (mouse splenocytes) [nM]
CC1OCc2c1c1ncnc(N)c1n2-c1ccc(Oc2cccc(OCc3cccc(Cl)c3)c2)cc1 (stereo not shown) [Compound 97] | < 100 | 100 to 1000
CC1OCc2c1c1ncnc(N)c1n2-c1ccc(Oc2cccc(OCc3cccc(F)c3)c2)cc1 (stereo not shown) [Compound 99] | < 100 | 100 to 1000
CC1OCc2c1c1ncnc(N)c1n2-c1ccc(Oc2cccc(OCc3ccccc3C(F)(F)F)c2)cc1 (stereo not shown) [Compound 100] | < 100 | < 100
Cc1nc(COc2cccc(Oc3ccc(-n4c5c(c6ncnc(N)c64)C(C)OC5)cc3)c2)cs1 (stereo not shown) [Compound 102] | < 100 | 100 to 1000
CC(C)C(=O)Nc1cccc(Oc2ccc(-n3c4c(c5ncnc(N)c53)C(C)OC4)cc2)c1 (stereo not shown) [Compound 111] | < 1000 | > 1000
CC1OCc2c1c1ncnc(N)c1n2-c1ccc(Oc2cccc(NC(=O)c3ccc(F)cc3)c2)cc1 (stereo not shown) [Compound 112] | < 100 | 100 to 1000
CC1OCc2c1c1ncnc(N)c1n2-c1ccc(Oc2cccc(OCc3cccc([N+](=O)[O-])c3)c2)cc1 (stereo not shown) [Compound 113] | < 100 | 100 to 1000
CC1OCc2c1c1ncnc(N)c1n2-c1ccc(Oc2cccc(OCc3cccc(N)c3)c2)cc1 (stereo not shown) [Compound 116] | < 100 | 100 to 1000
CC1OCc2c1c1ncnc(N)c1n2-c1ccc(Oc2cccc(NC(=O)c3cccc(F)c3)c2)cc1 (stereo not shown) [Compound 121] | < 100 | 100 to 1000
CC1OCc2c1c1ncnc(N)c1n2-c1ccc(Oc2cccc(NC(=O)c3ccccc3F)c2)cc1 (stereo not shown) [Compound 125] | < 100 | 100 to 1000
CCCC(=O)Nc1cccc(Oc2ccc(-n3c4c(c5ncnc(N)c53)C(C)OC4)cc2)c1 (stereo not shown) [Compound 126] | < 1000 | 100 to 1000
COc1ccccc1C(=O)Nc1cccc(Oc2ccc(-n3c4c(c5ncnc(N)c53)C(C)OC4)cc2)c1 (stereo not shown) [Compound 127] | < 100 | 100 to 1000
Nc1ncnc2c3c(n(-c4ccc(Oc5cccc(OCc6ccc(Cl)cc6)c5)cc4)c12)CCC3 [Compound 128] | < 100 | 100 to 1000
CC(=O)Nc1cccc(COc2cccc(Oc3ccc(-n4c5c(c6ncnc(N)c64)CCC5)cc3)c2)c1 [Compound 130] | < 100 | 100 to 1000
COc1ccc(OCc2cccc(Oc3ccc(-n4c5c(c6ncnc(N)c64)C(C)OC5)cc3)c2)cc1 (stereo not shown) [Compound 131] | < 100 | 100 to 1000
COCC(=O)Nc1cccc(COc2cccc(Oc3ccc(-n4c5c(c6ncnc(N)c64)C(C)OC5)cc3)c2)c1 (stereo not shown) [Compound 132] | < 100 | 100 to 1000
CC1OCc2c1c1ncnc(N)c1n2-c1ccc(Oc2cccc(COc3ccccc3C#N)c2)cc1 (stereo not shown) [Compound 134] | < 100 | < 100
CC1OCc2c1c1ncnc(N)c1n2-c1ccc(Oc2cccc(OCC3CC3)c2)cc1 (stereo not shown) [Compound 138] | < 100 | 100 to 1000
CC1OCc2c1c1ncnc(N)c1n2-c1ccc(Oc2cccc(OCc3cccc(OCCN(C)C)c3)c2)cc1 (stereo not shown) [Compound 139] | < 100 | 100 to 1000
CC1OCc2c1c1ncnc(N)c1n2-c1ccc(Oc2cccc(OCC3CCCC3)c2)cc1 (stereo not shown) [Compound 140] | < 1000 | 100 to 1000
N#Cc1ccccc1OCc1cccc(Oc2ccc(-n3c4c(c5ncnc(N)c53)COC4)cc2)c1 [Compound 142] | < 100 | 100 to 1000
